The subject of assay [1] is 3T3/L1 adipocytes. The assay can be described thus: Cellular glucose uptake under insulin, AICAR, dexamethasone monitored by GB2-Cy3. Type of assay: cell-based, mouse. The following applies: insulin 170 nM, AICAR 1 mM (1 hr) or dexamethasone 1 μM (24 hrs); GB2-Cy3 10 μM. As to the method:
(§1) For the differentiation of preadipocyte to mature adipocytes, 3T3/L1 fibroblast cells were cultured using the above mentioned culture protocol. […] When the cells start to generate lipid drops as an indication of the differentiation toward mature adipocytes, insulin was removed from the culture media. Mature adipocytes can be achieved by 8- to 12-day differentiation, and used for flow cytometric analysis and fluorescent bioimaging microscopy.
Also, C2C12 cells and 3T3/L1 cells, each having a population of 6×10^4 cells, were cultured and differentiated on respective microscope cover glasses [Marlenfeld GmbH&Co., KG (Germany)] in 35 mm cell culture dishes. After removal of the differentiation media, FBS-free DMEM media containing 5.5 mM glucose were added to maintained a serum-free condition for 4 hrs. […] In this regard, an FBS-free DMEM medium containing 5.5 mM glucose or a DMEM medium free of both FBS and glucose was used. Cells were incubated at 37° C. for 30 min after which the glass chamber slides were withdrawn from the culture dishes and loaded on a chamber. […] Fluorescence images were taken every seven seconds, digitized and saved on a computer until analysis.
3T3/L1 preadipocyte cells and C2C12 […] cells were cultured in 24-well plates. […] 2×10^5 (3T3/L1) or 1×10^5 (C2C12) cells were analyzed using FACSCalibur™ and a confocal laser scanning microscope.

Assay [2] has as its system C2C12 muscle cells. The assay is described as above. The note with it: insulin 170 nM, AICAR 1 mM (1 hr) or dexamethasone 1 μM (24 hrs); GB2-Cy3 5 μM. Type of assay: cell-based, mouse.
Procedure: (§4) For the differentiation to mature muscle cells, C2C12 mouse myoblast cells were maintained in DMEM supplemented with 10% FBS and 1% antibiotic-antimycotic solution. When the cells reached to 100% confluency, the medium was changed to DMEM containing 2% horse serum in every two days. Experiments for flow cytometric analysis and flow cytometric analysis were carried out with cells after 3 to 5-days differentiation.
3T3/L1 preadipocyte cells and C2C12 fibroblast cells were cultured in 24-well plates. […] 2×10^5 (3T3/L1) or 1×10^5 (C2C12) cells were analyzed using FACSCalibur™ and a confocal laser scanning microscope.
Assay [3] concerns A549 cells. The assay is described as follows: Probe uptake by A549 cells, inverted fluorescent microscope (α/β anomers, alanine, 2-NBDG comparison). Type of assay: cell-based, human. As for the experimental part:
(§2) 1×10^4 cells were cultured on a Lab-Tek glass chamber slide (Nalge Nunc International, Naperville, Ind., USA) in 35 mm cell culture dish. After 24 h, the cells were treated for each experimental purpose. Then, the medium was replaced with RPMI 1640 medium containing 12.5 μM of Cy3-Glc-α. The cells were exposed to Cy3-Glc-α for 40 min, then washed with PBS 3 times. Finally, the glass chamber slide was taken from culture dish and loaded on the fluorescence microscope (Axiovert 200, Carl Zeiss, Germany). Fluorescence images of 35-50 cells were taken by CCD camera (Axiocam MRm, Germany) and fluorescence intensity of each cell was measured by Axiovision (program for data analysis). An area as ROIs (regions of interest) which contains a cell in phase-contrast image was drawn using Axiovision. Axiovision analyzed CCD camera images and provided the digitized mean of fluorescence intensity in the ROIs that the present inventors had established. The present inventors subtracted the background intensity from the fluorescence intensity to get the fluorescence intensity value that a cell contained. With the method described above, the present inventors digitized fluorescence intensity and performed various experiments.
To confirm the above hypothesis, real-time uptake of Cy3-Glc-α was measured, and the results were compared to those of Cy3-Glc-β by live imaging of A549 cells by using inverted fluorescent microscope. […] This led the present inventors to the conclusion that the stereochemistry at the C-1 anomeric position definitely influences the efficiency of mimicking glucose, and this might be due to the binding orientation of D-glucose in GLUTs [P. W. Hruz, M. M. Mueckler, Mole. Memb. Biol. 2001, 18, 183-193].
The cellular uptake of 2-NBDG was not detected under identical experimental conditions used for Cy3-Glc-α. […] To achieve the fluorescence intensity with 2-NBDG to 80% that of Cy3-Glc-α, a 10 fold increase in 2-NBDG concentration and a 20 fold increase in the lens exposure time in D-glucose-depleted medium were needed.
In addition, the cellular uptake of 2-NBDG in normal media (containing 10 mM D-glucose) was extremely low (>60% uptake reduction in normal media) and was hardly detected using fluorescent based imaging methods [R. G. O'Neil, L. Wu, N. Mullani, Mol. Imaging Biol. 2005, 7, 388-392]. 2-NBDG was detectable only in glucose-depleted media, and this means a critical limitation of bioapplication of 2-NBDG in the biologically significant environments. In comparison with 2-NBDG, the reduction of Cy3-Glc-α uptake in glucose-containing media was only 5% compared to that in glucose-depleted media (FIG. 18). Therefore, it was confirmed that Cy3-Glc-α was capable of being applied to a bioassay system regardless of glucose starvation.

The conditions of assay [4]: normal media containing 10 mM D-glucose; cited from earlier work.
The test system of assay [5] is NIH/3T3 cells. The assay can be described thus: FACS-based flow cytometric analysis of probe uptake with/without 11 mM D-glucose. Type of assay: cell-based, murine. The note with it: for reduction in cellular uptake due to 11 mM D-glucose: glucose-depleted condition normalized to 100. As to the method:
FACS (Fluorescence Activated Cell Sorting)-based flow cytometric analysis was used to compare cellular uptake efficiency in NIH/3T3 cells among the glucose probe [2-(N-Cy3-piperazinoethyl)]-α-D-glucose (GB2-Cy3), synthesized in Example 2, the conventional fluorescent glucose probe 2-NBDG and the glucose probe Cy3-Glc-α, synthesized in Example 1.
NIH/3T3 cells were cultured on 10 cm cell culture dishes and transferred in a volume of 3×10^5 cells into each FACS tube (5 mL, BD). They were washed once with cold PBS before incubation at 37° C. for 30 min in 11 mM D-glucose-containing PBS or glucose-free PBS in the presence of the bioprobe [GB2-Cy3 (5 μM), 2-NBDG (5 μM or 50 μM) or Cy3-Glc-α (5 μM)]. Cells that were incubated without the bioprobes were used as a negative control. After being washed with cold PBS, 1×10^4 NIH/3T3 cells were analyzed on FACSCalibur™ (FACS-based flow cytometer). GBs-Cy3 was detected by FL2 channels. Raw data of 1×10^4 cells are shown in histograms, with the mean values thereof given in the graph of FIG. 21.

Assay [6] relates to A549 cells. The assay is described as follows: Screening of anticancer agents by Cy3-Glc-α uptake. Type of assay: cell-based, human. As for the experimental part: as §2
The application was performed under the postulation that the depression of perturbed cellular metabolism in cancer cells was caused by anticancer agents, which was closely related to the reduction of glucose uptake.
The present inventors intended to monitor this phenomenon by the fluorescent bioprobe according to the present invention, that is, Cy3-Glc-α. As a proof-of-principle experiment, after A549 cancer cells were treated with taxol (9.8 μM), an anticancer agent, and the uptake of Cy3-Glc-αwas measured at 3, 6, 12, and 24 h after the treatment.
(3) In addition, after the taxol concentration was changed in the range of 490 nM to 49 nM, the uptake of Cy3-Glc-α by A549 cells was measured after 8 hr and 12 hr, and after another anticancer agent, i.e., combretastatin, (2 μM) was used to treat A549 cells, the uptake of Cy3-Glc-α by A549 cells was measured after 8 hr and 12 hr.

Assay [7] concerns 3T3/L1 pre-adipocytes. The assay can be described thus: GB2-Cy3 uptake during adipocyte differentiation, FACS-based flow cytometry. Type of assay: cell-based, mouse. The note with it: day 0 to day 8 of differentiation. As to the method:
as §1
The changes in cellular glucose uptake from 3T3/L1 pre-adipocytes (day 0 of differentiation) toward more than 50% differentiation of mature adipocytes (day 8 of differentiation) were measured by FACS-based flow cytometric analysis using GB2-Cy3. The differentiation procedure was followed as described above. 1×10^4 cells were analyzed at FL2 channel of the flow cytometry. […] As mentioned above, the glucose analogue GB2-Cy3 of the present invention is useful for monitoring the differentiation of 3T3/L1 cells into mature adipocytes.
On the technique in general: Flow cytometry measures light scatter and fluorescence of single cells or particles in a stream.

Assay [8] relates to C2C12 muscle cells. The assay can be described thus: Glucose competition and insulin response monitored by GB2-Cy3, flow cytometry. Type of assay: cell-based, mouse. The following applies: D-glucose competition and insulin treatment.
Procedure: as §4
The resulting cells were incubated with 5 μM GB2-Cy3 for 15 min in the absence/presence of 11 mM D-glucose. They were washed with cold PBS, collected and analyzed using FACSCalibur™. After detection of GB2-Cy3 by FL2 channels, mean fluorescent intensity values were calculated.
The test system of assay [9] is A549 cells. The assay can be described thus: Fluorescence imaging analysis of competitive probe uptake. Type of assay: cell-based, human. As for the experimental part:
(§3) Also, NIH/3T3, A549, C2C12 and 3T3/L1 cells, each having a population of 4×10^4 cells, were cultured on 35 mm cell culture dishes (BD Falcon™ Cell Culture Dish; BD Bioscience, CA, USA). Two days later, the cell culture medium was replaced with a glucose-depleted medium (DMEM, glucose free, GIBCO) supplemented with 0 mM, 11 mM or 55 mM D-glucose and 10 μM GB2-Cy3. After incubation at 37° C. for 30 min, the cells on the cover slips in the 35-mm cell culture dishes were washed twice with cold PBS and the cover slips were mounted on the caster of a fluorescence microscope (Olympus IX71). During observation under the fluorescence microscope, the cells were maintained at 37° C. in the chamber. Fluorescence images of 35-50 cells were taken by CCD camera (Axiocam MRm, Germany) and each cell was measured for fluorescence intensity using the image data analysis program Image-Pro® Plus (MediaCybernetics, USA). As ROIs (regions of interest), areas which encompassed cells within phase-contrast images were drawn using Image-Pro® Plus. Image-Pro® Plus analyzed CCD camera images to produce the digitized mean of fluorescence intensity within the ROIs that the present inventors had established. The background intensity was subtracted from the detected fluorescence intensity to give the fluorescence intensity value that a cell contained. In this manner, the fluorescence intensity was digitized for performing various experiments.
NIH/3T3 and A549 cells were cultured on microscope cover glasses in 35 mm cell culture dishes and subjected to fluorescence imaging analysis according to the protocol.

Assay [10] deals with NIH/3T3 cells. The assay can be described thus: Fluorescence imaging analysis of competitive GB2-Cy3 uptake. The following applies: GB2-Cy3 10 μM; 0, 11 or 55 mM D-glucose. Type of assay: cell-based, murine. As for the experimental part: as §3, with “As ROIs (regions of interest), areas which encompassed cells within phase-contrast images were drawn using Image-Pro® Plus.” left out, “experiments. […]” for “experiments.”

“Also recorded” adds a separate entry of the source.

Results on five compounds are retold here after patent publication US8772463B2, “Fluorescent dye-labeled glucose bioprobe, synthesis method and usage thereof” (SNU R&DB Foundation, priority 2007, dated 2014).

As to “insulin: Insulin purchased from SIGMA; stimulates GLUT4 translocation and glucose uptake”, the “effect on cellular uptake of glucose monitored by GB2-Cy3” value in [1] and in [2] was “enhanced cellular uptake of glucose” in each case.
`O=[N+]([O-])c1ccc(NC2C(O)OC(CO)C(O)C2O)c2nonc12` [2-NBDG, 2-[N-(7-nitrobenz-2-oxa-1,3-diazol-4-yl)amino]-2-deoxy-D-glucose]: the “detection of cellular uptake under conditions identical to Cy3-Glc-α” value in [3] (12.5 μM, 500 ms lens exposure) is “not detected”. The “fluorescence detection at 125 μM” value in assay [3] (125 μM, 500 ms CCD lens exposure) was “little detected; also recorded: the fluorescence was not detected”. Moreover, in [3] (10 fold 2-NBDG concentration, 20 fold lens exposure time, D-glucose-depleted medium), the “fluorescence intensity of 2-NBDG relative to that of Cy3-Glc-α” value worked out at 80%. Moreover, in assay [4], the “uptake reduction in normal media” value is on record as over 60%. In assay [5] (probe 5 μM, 11 mM D-glucose), the “competition with D-glucose for cellular uptake” value is reported as “did not compete with D-glucose for cellular uptake”. The “reduction in cellular uptake due to 11 mM D-glucose” value in assay [5] (probe 50 μM) came to 30%.
Turning to `COc1ccc(C[C@@H](O)c2cc(OC)c(OC)c(OC)c2)cc1O` [Combretastatin], the “uptake of Cy3-Glc-α by A549 cells” value came out at 57.4% in assay [6] (agent 2 μM, 6 h) and 45.0% in assay [6] (agent 2 μM, 12 h).
Consider `C[N+]1=C(/C=C/C=C2/N(CCCCC(=O)N3CCN(CCOC4OC(CO)C(O)C(O)C4O)CC3)c3ccccc3C2(C)C)C(C)(C)c2ccccc21` [GB2-Cy3, [2-(N-Cy3-piperazinoethyl)]-α-D-glucose], for which the “fluorescent intensity (FL2) as differentiation progressed” value in assay [7] is reported as “increase in fluorescence intensity with the advance of differentiation; also recorded: the fluorescent intensity detected by FL2 channel was increased”. The “uptake route of GB2-Cy3” value in assay [8] is on record as “GLUT-specific uptake”. In addition, the “cellular uptake in A549 cells compared with NIH/3T3 cells” value in assay [9] (GB2-Cy3 10 μM) is recorded as “observed to increase in A549 lung carcinoma cells”. For the same compound, the “cellular uptake versus D-glucose concentration” value in [9] (GB2-Cy3 10 μM, 0, 11 or 55 mM D-glucose) is recorded as “reduced in a D-glucose dose-dependent manner”; in assay [9] (probe 12.5 μM), “decreased in the cellular uptake of the glucose analogues in D-glucose dose-dependent manners”; in assay [10], “reduced in a D-glucose dose-dependent manner”. For the same compound, the “change in the fluorescent intensity of ROIs when D-glucose changed from 10 mM to 55 mM” value in [9] (probe 12.5 μM) was “approximately 27%”. Also, the “reduction in cellular uptake due to 11 mM D-glucose” value in assay [5] (probe 5 μM) is reported as “about 60%”.
For `CC(=O)O[C@H]1C(=O)[C@@]2(C)[C@H]([C@H](OC(=O)c3ccccc3)[C@]3(O)C[C@H](OC(=O)[C@H](O)[C@@H](NC(=O)c4ccccc4)c4ccccc4)C(C)=C1C3(C)C)[C@]1(OC(C)=O)CO[C@@H]1C[C@@H]2O` [Taxol], the “uptake of Cy3-Glc-α by A549 cells” value in assay [6] (agent 49 nM, 6 h) was 96.5%; in [6] (agent 49 nM, 12 h), 86.9%; in assay [6] (agent 490 nM, 6 h) it was 88.4%; in [6] (agent 490 nM, 12 h), 61.8%; in [6] (agent 9.8 μM, 6 h), 54.8%; in assay [6] (agent 9.8 μM, 12 h), 50.2%. Further, the “cellular uptake of Cy3-Glc-α versus incubation time with agent” value in assay [6] (taxol 9.8 μM, 3, 6, 12, 24 h) is given as “reduced as the incubation time increased”.
